Data taken from US5439816A, “Carboxymethylcellulase isolated from bacillus sp. PKM-5430 (FERM BP-4087)” (Kao Corporation, priority 1991, dated 1995).

What was measured:
[1] = test system: Carboxymethylcellulase 5430; test: Substrate specificity of Carboxymethylcellulase 5430 (hydrolytic activities, DNS method / p-nitrophenol release); type: biochemical, Bacillus sp. PKM-5430
Procedure: (§1) Activities were determined by the DNS method (J. R. Summer and G. F. Somers, Laboratory Experiments in Biological Chemistry, Academic Press, New York, U.S.A., 1944). Namely, 0.1 ml of a suitably diluted enzyme solution was added to 0.9 ml of a 1.1% (w/v) solution of a CMC (A01MC) substrate in 0.1M glycine-NaOH buffer (pH: 9.0). After a 20-minute reaction at 40° C., 1 ml of 0.05% (w/v) 3,5-dinitrosalicylic acid solution (product of Wako Pure Chemical Industries, Ltd.) was added, and the resulting mixture was immediately placed in a boiling water bath for 5 minutes, followed by cooling in an iced water bath. Then, 4 ml of deionized water was added further, afterwhich, colorimetry was conducted by measuring an absorbance at 535 nm. With respect to enzymatic activity, the amount of enzyme, which liberates reducing sugars corresponding to 1 μmole of glucose for 1 minute, was defined as 1 unit.
(§2) Sodium hydroxide- and phosphoric acid-swollen celluloses were prepared according to the method of Tomita et al. [Y. Tomita, H. Suzuki and K. Nisizawa, J. Biochem., 78, 499(1975)]. The reducing sugar liberated was determined in a similar manner to that of the method (a) except that substrate solutions containing cellulose substrates were used, and the reaction was conducted at 30° C.
(§3) The reducing sugar liberated was determined in a similar manner to that of the method (a) except that substrate solutions containing polysaccharides were used, and the reaction was conducted at 30° C.
(§4) A suitably diluted enzyme solution was added to a solution of 8 mM of a PNPG or PNPC substrate in 0.1M phosphate buffer of pH 7.0 to react them for 20 minutes at 30° C. The p-nitrophenol liberated was determined at 400 nm and the amount formed was calculated.
(§5) The enzyme is also active toward cellobiose, PNPG, PNPC, cellulose powder and phosphoric acid-swollen cellulose.

[2] = test system: Carboxymethylcellulase 5812; test: Substrate specificity of Carboxymethylcellulase 5812 (hydrolytic activities, DNS method / p-nitrophenol release); type: biochemical, Bacillus sp. PKM-5812
Procedure: as §1, §2, §3, §4, §5

[3] = substrate 8 mM, 0.1M phosphate buffer pH 7.0, 30° C., activity toward CMC taken as 100%
[4] = substrate 0.1%, activity toward CMC at 30° C. taken as 100%

| Structure (SMILES) | activity of the enzyme toward substrate [1] | Relative activity (%) [1, 3] | activity of the enzyme toward substrate [2] | Relative activity (%) [2, 3] | Relative activity (%) [1, 4] | Relative activity (%) [2, 4] |
| --- | --- | --- | --- | --- | --- | --- |
| O=[N+]([O-])c1ccc(O[C@@H]2O[C@H](CO)[C@@H](O)[C@H](O)[C@H]2O)cc1 [PNPG, p-nitrophenyl-β-D-glucopyranoside] | active | 0.8% | active | 0.2% |  |  |
| O=[N+]([O-])c1ccc(O[C@@H]2O[C@H](CO)[C@@H](O[C@@H]3O[C@H](CO)[C@@H](O)[C@H](O)[C@H]3O)[C@H](O)[C@H]2O)cc1 [PNPC, p-nitrophenyl-β-D-cellobioside] | active | 1.0% | active | 0.6% |  |  |
| OC[C@H]1O[C@@H](O[C@H]2[C@H](O)[C@@H](O)C(O)O[C@@H]2CO)[C@H](O)[C@@H](O)[C@@H]1O (stereo partly drawn) [Cellobiose] | active |  | active |  | 0.4% | 0.4% |
